Experimental data from PMC11062899, “De novo development of small cyclic peptides that are orally bioavailable” (Nature Chemical Biology, 2023).

Molecular target: human α-thrombin (Homo sapiens, UniProt P00734)
Experiment: Sub-library screen for active and permeable cyclic peptides (PAMPA plus thrombin inhibition)
Assay type: biochemical
Conditions: crude, slopes normalized to DMSO; for Residual thrombin activity: Top sample: PAMPA acceptor well after 14 h, 5 μM donor; for Residual thrombin activity: Equilibrated sample: donor sample diluted to theoretical equilibrium (1 μM in assay)
Procedure: Linear dithiol peptides were synthesized in fritted 5-ml polypropylene syringes on a MultiPep RSi parallel peptide synthesizer (Intavis) by standard Fmoc-based solid-phase peptide synthesis on cysteamine 2-chlorotrityl resin (Sigma-Aldrich, 8.56000, 1.63 mmol g^−1 loading, 25 μmol scale) as described above with small changes. Amino acids (65 μmol, 2.6 eq.) were activated with HATU (63 μmol, 2.5 eq.) and NMM (145 μmol, 5.8 eq.) in 280 μl of DMF and 5 μl of NMP and let to react with the resin (25 μmol, 1 eq.) for 45 min. Couplings were performed twice for each amino acid. Resin was washed once with 800 μl of DMF, and unreacted amines were capped with 5% acetic anhydride and 6% 2,6-lutidine in 400 μl of DMF for 5 min. The resin was washed six times with 600 μl of DMF, and Fmoc protecting groups were removed by incubating the resin twice with 450 μl of a 20% piperidine solution in DMF for 5 min. The resin was washed six times with 600 μl of DMF before proceeding to the next coupling cycle. After completing the last coupling cycle, the resin was washed six times with […] of DCM. Peptide cleavage and ether precipitation were carried out as described above. After quantification with Ellman’s reagent, 1 μmol of each peptide was transferred in seven replicates to new Nunc 96-well DeepWell polypropylene plates and lyophilized. Peptides were cyclized as described above to afford 20 mM cyclic peptide stock solutions in DMSO containing 160 mM HEPES sodium salt. The amine on cyclic peptides was acylated with 5-chlorothiophene-2-carboxylic acid as follows. A 160 mM solution in 5-chlorothiophene-2-carboxylic acid was prepared in DMSO containing 160 mM HEPES sodium salt, and the acid was activated by mixing in equal volumes with a 160 mM HSTU solution in DMSO. Then, 10 μl of the activated carboxylic acid solutions and the cyclic peptide stocks were placed in Echo Qualified 384-well Low Dead Volume microplates (Labcyte), and 400 nl of cyclic peptide and 400 nl of HSTU-activated 5-chlorothiophene-2-carboxylic acid were transferred combinatorially to 384-well microplates (Greiner, 781076) using the Echo 650 acoustic liquid handler (Labcyte). Plates were centrifuged at 2,000 g for 2 min, and the reaction was allowed to proceed at room temperature for 8 h before addition of 39.2 μl of DMSO with a CERTUS FLEX liquid dispenser (Gyger). A volume of 25 μl of the resulting DMSO solutions was diluted with PBS buffer at pH 7.4 containing 5% DMSO in Nunc 96-well DeepWell polypropylene plates to afford 5 μM solutions of the acylated peptides.
The PAMPA plates were covered with a lid to avoid evaporation and incubated for 14 h at room temperature. Additionally, a diluted donor sample was prepared at the concentration representing theoretical maximum permeability (3 μM). Thereby, 30 μl of the donor sample before incubation was diluted with 20 μl of PBS buffer at pH 7.4 containing 5% DMSO. Volumes of 16 μl of each acceptor well and the diluted donor samples were transferred to a 384-well microplate (Greiner, 781076), and thrombin activity was measured as follows. Human α-thrombin (16 μl, 6 nM, Molecular Innovations) in assay buffer was dispensed into each well using a CERTUS FLEX liquid dispenser (Gyger), and plates were incubated at room temperature for 10 min. Then, 16 μl of a 150 μM fluorogenic thrombin substrate solution (Z-Gly-Gly-Arg-AMC, Bachem) in assay buffer containing 1% DMSO was added to each well, and thrombin inhibition was determined by measuring the fluorescent gain over time. Fluorescence intensity was measured on a Tecan Infinite M200 Pro microplate reader for 30 min at 25 °C with a fluorescent readout every 3 min (excitation: 360 nm, emission: 465 nm). Protease inhibition was calculated by comparing the enzymatic activity to a control without cyclic peptide.

Compound	Residual thrombin activity: Top sample	Residual thrombin activity: Equilibrated sample
O=C1C[C@H]2CCCN2C(=O)[C@H](Cc2ccccc2)NC(=O)[C@@H](NC(=O)c2ccc(Cl)s2)CSC/C=C/CSCCN1 [C1-X5-L4]	53.7	31.7
O=C1C[C@H]2CCCN2C(=O)[C@H](Cc2ccccc2)NC(=O)[C@@H](NC(=O)c2ccc(Cl)s2)CSCc2cccc(c2)CSCCN1 [C1-X5-L5]	92.1	73.3
O=C1C[C@H]2CCCN2C(=O)[C@H](Cc2ccccc2)NC(=O)[C@@H](NC(=O)c2ccc(Cl)s2)CSCc2ccccc2CSCCN1 [C1-X5-L6]	82.2	60.8
O=C1CSCCNC(=O)C[C@H]2CCCN2C(=O)[C@H](Cc2ccccc2)NC(=O)[C@@H](NC(=O)c2ccc(Cl)s2)CSC1 [C1-X5-L7]	93.6	82.8
O=C1C[C@H]2CCCN2C(=O)[C@@H](Cc2ccccc2)NC(=O)[C@@H](NC(=O)c2ccc(Cl)s2)CSCc2cccc(n2)CSCCN1 [C1-X31-L1]	89.8	93.2
O=C1C[C@H]2CCCN2C(=O)[C@@H](Cc2ccccc2)NC(=O)[C@@H](NC(=O)c2ccc(Cl)s2)CSCCS(=O)(=O)CCSCCN1 [C1-X31-L2]	103.5	90.9
O=C1C[C@H]2CCCN2C(=O)[C@@H](Cc2ccccc2)NC(=O)[C@@H](NC(=O)c2ccc(Cl)s2)CSCc2ccc(cc2)CSCCN1 [C1-X31-L3]	95.4	95.0
O=C1C[C@H]2CCCN2C(=O)[C@@H](Cc2ccccc2)NC(=O)[C@@H](NC(=O)c2ccc(Cl)s2)CSC/C=C/CSCCN1 [C1-X31-L4]	96.8	93.6
O=C1C[C@H]2CCCN2C(=O)[C@@H](Cc2ccccc2)NC(=O)[C@@H](NC(=O)c2ccc(Cl)s2)CSCc2cccc(c2)CSCCN1 [C1-X31-L5]	100.5	95.5
O=C1C[C@H]2CCCN2C(=O)[C@@H](Cc2ccccc2)NC(=O)[C@@H](NC(=O)c2ccc(Cl)s2)CSCc2ccccc2CSCCN1 [C1-X31-L6]	88.4	91.2
O=C1CSCCNC(=O)C[C@H]2CCCN2C(=O)[C@@H](Cc2ccccc2)NC(=O)[C@@H](NC(=O)c2ccc(Cl)s2)CSC1 [C1-X31-L7]	96.8	96.3
CN1C(=O)[C@@H](NC(=O)c2ccc(Cl)s2)CSCc2cccc(n2)CSCCNC(=O)C[C@H]2CCCN2C(=O)[C@@H]1Cc1ccccc1 [C1-X32-L1]	87.6	99.6
CN1C(=O)[C@@H](NC(=O)c2ccc(Cl)s2)CSCCS(=O)(=O)CCSCCNC(=O)C[C@H]2CCCN2C(=O)[C@@H]1Cc1ccccc1 [C1-X32-L2]	96.4	95.3
CN1C(=O)[C@@H](NC(=O)c2ccc(Cl)s2)CSCc2ccc(cc2)CSCCNC(=O)C[C@H]2CCCN2C(=O)[C@@H]1Cc1ccccc1 [C1-X32-L3]	91.1	94.0
CN1C(=O)[C@@H](NC(=O)c2ccc(Cl)s2)CSC/C=C/CSCCNC(=O)C[C@H]2CCCN2C(=O)[C@@H]1Cc1ccccc1 [C1-X32-L4]	95.6	100.2
CN1C(=O)[C@@H](NC(=O)c2ccc(Cl)s2)CSCc2cccc(c2)CSCCNC(=O)C[C@H]2CCCN2C(=O)[C@@H]1Cc1ccccc1 [C1-X32-L5]	98.6	96.6

Compound	Residual thrombin activity: Top sample	Residual thrombin activity: Equilibrated sample
CN1C(=O)[C@@H](NC(=O)c2ccc(Cl)s2)CSCc2ccccc2CSCCNC(=O)C[C@H]2CCCN2C(=O)[C@@H]1Cc1ccccc1 [C1-X32-L6]	91.7	86.4
CN1C(=O)[C@@H](NC(=O)c2ccc(Cl)s2)CSCC(=O)CSCCNC(=O)C[C@H]2CCCN2C(=O)[C@@H]1Cc1ccccc1 [C1-X32-L7]	95.4	96.7
COc1ccc(C[C@@H]2NC(=O)[C@@H](NC(=O)c3ccc(Cl)s3)CSCc3cccc(n3)CSCCNC(=O)C[C@H]3CCCN3C2=O)cc1 [C1-X33-L1]	92.7	96.7
COc1ccc(C[C@@H]2NC(=O)[C@@H](NC(=O)c3ccc(Cl)s3)CSCCS(=O)(=O)CCSCCNC(=O)C[C@H]3CCCN3C2=O)cc1 [C1-X33-L2]	98.0	99.8
COc1ccc(C[C@@H]2NC(=O)[C@@H](NC(=O)c3ccc(Cl)s3)CSCc3ccc(cc3)CSCCNC(=O)C[C@H]3CCCN3C2=O)cc1 [C1-X33-L3]	96.4	98.9
COc1ccc(C[C@@H]2NC(=O)[C@@H](NC(=O)c3ccc(Cl)s3)CSC/C=C/CSCCNC(=O)C[C@H]3CCCN3C2=O)cc1 [C1-X33-L4]	95.0	98.0
COc1ccc(C[C@@H]2NC(=O)[C@@H](NC(=O)c3ccc(Cl)s3)CSCc3cccc(c3)CSCCNC(=O)C[C@H]3CCCN3C2=O)cc1 [C1-X33-L5]	99.7	99.3
COc1ccc(C[C@@H]2NC(=O)[C@@H](NC(=O)c3ccc(Cl)s3)CSCc3ccccc3CSCCNC(=O)C[C@H]3CCCN3C2=O)cc1 [C1-X33-L6]	89.9	95.4
COc1ccc(C[C@@H]2NC(=O)[C@@H](NC(=O)c3ccc(Cl)s3)CSCC(=O)CSCCNC(=O)C[C@H]3CCCN3C2=O)cc1 [C1-X33-L7]	97.9	101.4
O=C1C[C@H]2CCCN2C(=O)[C@H](Cc2ccc(Cl)cc2)NC(=O)[C@@H](NC(=O)c2ccc(Cl)s2)CSCc2cccc(n2)CSCCN1 [C1-X34-L1]	93.9	92.0
O=C1C[C@H]2CCCN2C(=O)[C@H](Cc2ccc(Cl)cc2)NC(=O)[C@@H](NC(=O)c2ccc(Cl)s2)CSCCS(=O)(=O)CCSCCN1 [C1-X34-L2]	95.9	98.3
O=C1C[C@H]2CCCN2C(=O)[C@H](Cc2ccc(Cl)cc2)NC(=O)[C@@H](NC(=O)c2ccc(Cl)s2)CSCc2ccc(cc2)CSCCN1 [C1-X34-L3]	96.0	94.6
O=C1C[C@H]2CCCN2C(=O)[C@H](Cc2ccc(Cl)cc2)NC(=O)[C@@H](NC(=O)c2ccc(Cl)s2)CSC/C=C/CSCCN1 [C1-X34-L4]	98.7	91.7
O=C1C[C@H]2CCCN2C(=O)[C@H](Cc2ccc(Cl)cc2)NC(=O)[C@@H](NC(=O)c2ccc(Cl)s2)CSCc2cccc(c2)CSCCN1 [C1-X34-L5]	97.0	98.5
O=C1C[C@H]2CCCN2C(=O)[C@H](Cc2ccc(Cl)cc2)NC(=O)[C@@H](NC(=O)c2ccc(Cl)s2)CSCc2ccccc2CSCCN1 [C1-X34-L6]	93.0	92.0
O=C1CSCCNC(=O)C[C@H]2CCCN2C(=O)[C@H](Cc2ccc(Cl)cc2)NC(=O)[C@@H](NC(=O)c2ccc(Cl)s2)CSC1 [C1-X34-L7]	100.2	98.8
